Laboratory results taken from ChEMBL document CHEMBL5550152, “Design, synthesis and evaluation of novel prostate-specific membrane antigen-targeted aryl [18F]fluorosulfate PET tracers” (Bioorg Med Chem, 2024).

Assays:
[1] = Stability of the compound in PBS buffer measured after 4 hrs by radio-HPLC analysis; format: physicochemical
[2] = Stability in mouse plasma measured after 4 hrs by radio-HPLC analysis; format: ADME, cell-free
[3] = Drug uptake in human 22Rv1 cells at 3.7 10^-2MBq measured after 1 hr relative to control; format: ADME, cell-based; conditions: cwr22r
[4] = Drug uptake in human 22Rv1 cells at 3.7 10^-2MBq pretreated with 2-PMPA for 30 mins followed by compound addition and measured after 1 hr relative to control; format: ADME, cell-based; conditions: cwr22r
[5] = Drug uptake in human 22Rv1 cells at 3.7 10^-2MBq measured after 4 hrs relative to control; format: ADME, cell-based; conditions: cwr22r
[6] = Drug uptake in human 22Rv1 cells at 3.7 10^-2MBq pretreated with 2-PMPA for 30 mins followed by compound addition and measured after 4 hr relative to control; format: ADME, cell-based; conditions: cwr22r
[7] = Drug uptake in mouse tumor xenografted with human 22Rv1 cells at 7.4 MBq, iv measured after 2 hrs by PET imaging analysis relative to control; format: ADME, organism-based, Neoplasm, CWR22R; conditions: in vivo
[8] = Drug uptake in mouse tumor xenografted with human 22Rv1 cells at 7.4 MBq, iv measured after 4 hrs by PET imaging analysis relative to control; format: ADME, organism-based, Neoplasm, CWR22R; conditions: in vivo
[9] = Drug uptake in mouse tumor xenografted with human 22Rv1 cells at 7.4 MBq, iv pretreated with 2-PMPA measured after 2 hrs by PET imaging analysis relative to control; format: ADME, organism-based, Neoplasm, CWR22R; conditions: in vivo
[10] = Drug uptake in mouse tumor xenografted with human 22Rv1 cells at 7.4 MBq, iv pretreated with 2-PMPA measured after 4 hrs by PET imaging analysis relative to control; format: ADME, organism-based, Neoplasm, CWR22R; conditions: in vivo
[11] = Drug uptake in mouse abdomen xenografted with human 22Rv1 cells at 7.4 MBq, iv measured after 2 to 4 hrs by PET imaging analysis; format: ADME, organism-based, CWR22R; conditions: in vivo, time 2-4 hrs
[12] = Drug distribution in nude mouse heart xenografted with human 22Rv1 cells at 8.1 MBq,iv measured after 1 hr; format: ADME, tissue-based, CWR22R; conditions: in vivo
[13] = Drug distribution in nude mouse liver xenografted with human 22Rv1 cells at 8.1 MBq,iv measured after 1 hr; format: ADME, tissue-based, CWR22R; conditions: in vivo
[14] = Drug distribution in nude mouse spleen xenografted with human 22Rv1 cells at 8.1 MBq,iv measured after 1 hr; format: ADME, tissue-based, CWR22R; conditions: in vivo
[15] = Drug distribution in nude mouse lung xenografted with human 22Rv1 cells at 8.1 MBq,iv measured after 1 hr; format: ADME, tissue-based, CWR22R; conditions: in vivo
[16] = Drug distribution in nude mouse stomach xenografted with human 22Rv1 cells at 8.1 MBq,iv measured after 1 hr; format: ADME, tissue-based, CWR22R; conditions: in vivo
[17] = Drug distribution in nude mouse small intestine xenografted with human 22Rv1 cells at 8.1 MBq,iv measured after 1 hr; format: ADME, tissue-based, CWR22R; conditions: in vivo
[18] = Drug distribution in nude mouse large intestine xenografted with human 22Rv1 cells at 8.1 MBq,iv measured after 1 hr; format: ADME, tissue-based, CWR22R; conditions: in vivo
[19] = Drug distribution in nude mouse gall bladder xenografted with human 22Rv1 cells at 8.1 MBq,iv measured after 1 hr; format: ADME, tissue-based, CWR22R; conditions: in vivo
[20] = Drug distribution in nude mouse brain xenografted with human 22Rv1 cells at 8.1 MBq,iv measured after 1 hr; format: ADME, tissue-based, CWR22R; conditions: in vivo
[21] = Drug distribution in nude mouse bone xenografted with human 22Rv1 cells at 8.1 MBq,iv measured after 1 hr; format: ADME, tissue-based, Bone element, CWR22R; conditions: in vivo
[22] = Drug distribution in nude mouse muscle tissue xenografted with human 22Rv1 cells at 8.1 MBq,iv measured after 1 hr; format: ADME, tissue-based, CWR22R; conditions: in vivo
[23] = Drug distribution in nude mouse blood xenografted with human 22Rv1 cells at 8.1 MBq,iv measured after 1 hr; format: ADME, tissue-based, CWR22R; conditions: in vivo
[24] = Drug distribution in nude mouse heart xenografted with human 22Rv1 cells at 8.1 MBq,iv measured after 2 hrs; format: ADME, tissue-based, CWR22R; conditions: in vivo
[25] = Drug distribution in nude mouse liver xenografted with human 22Rv1 cells at 8.1 MBq,iv measured after 2 hrs; format: ADME, tissue-based, CWR22R; conditions: in vivo
[26] = Drug distribution in nude mouse spleen xenografted with human 22Rv1 cells at 8.1 MBq,iv measured after 2 hrs; format: ADME, tissue-based, CWR22R; conditions: in vivo
[27] = Drug distribution in nude mouse lung xenografted with human 22Rv1 cells at 8.1 MBq,iv measured after 2 hrs; format: ADME, tissue-based, CWR22R; conditions: in vivo
[28] = Drug distribution in nude mouse kidney xenografted with human 22Rv1 cells at 8.1 MBq,iv measured after 2 hrs; format: ADME, tissue-based, CWR22R; conditions: in vivo
[29] = Drug distribution in nude mouse stomach xenografted with human 22Rv1 cells at 8.1 MBq,iv measured after 2 hrs; format: ADME, tissue-based, CWR22R; conditions: in vivo
[30] = Drug distribution in nude mouse small intestine xenografted with human 22Rv1 cells at 8.1 MBq,iv measured after 2 hrs; format: ADME, tissue-based, CWR22R; conditions: in vivo
[31] = Drug distribution in nude mouse large intestine xenografted with human 22Rv1 cells at 8.1 MBq,iv measured after 2 hrs; format: ADME, tissue-based, CWR22R; conditions: in vivo
[32] = Drug distribution in nude mouse gall bladder xenografted with human 22Rv1 cells at 8.1 MBq,iv measured after 2 hrs; format: ADME, tissue-based, CWR22R; conditions: in vivo

With COc1cc(C(=O)N[C@@H](CCC(=O)O)C(=O)N[C@@H](CCC(=O)O)C(=O)NCc2ccc(C(=O)N[C@@H](Cc3ccc4ccccc4c3)C(=O)NCCCC[C@H](NC(=O)N[C@@H](CCC(=O)O)C(=O)O)C(=O)O)cc2)ccc1OS(=O)(=O)[18F] the Stability [1] was “Stable”, the Stability [2] was “Stable” and the Drug uptake [3] was 0.72%. It also gave a Drug uptake [4] of 0.53%, a Drug uptake [5] of 1.19% and a Drug uptake [6] of 0.26%. For the same compound, the Drug uptake [7] was 2.85 % ID/g, the Drug uptake [8] was 3.25 % ID/g and the Drug uptake [9] was 1.37 % ID/g. For the same compound, the Drug uptake [10] was 1.4 % ID/g, the Drug uptake [11] was “Active” and the Drug uptake [12] was 1.57 % ID/g. For the same compound, the Drug uptake [13] was 4.61 % ID/g, the Drug uptake [14] was 1.85 % ID/g and the Drug uptake [15] was 3.18 % ID/g. The Drug uptake [16] was 1.75 % ID/g, the Drug uptake [17] was 2.58 % ID/g and the Drug uptake [18] was 2.21 % ID/g. It also gave a Drug uptake [19] of 3.69 % ID/g, a Drug uptake [20] of 0.15 % ID/g and a Drug uptake [21] of 2.11 % ID/g. The Drug uptake [22] was 1.32 % ID/g, the Drug uptake [23] was 6.43 % ID/g and the Drug uptake [24] was 0.97 % ID/g. For the same compound, the Drug uptake [25] was 1.79 % ID/g, the Drug uptake [26] was 1.23 % ID/g and the Drug uptake [27] was 1.28 % ID/g. For the same compound, the Drug uptake [28] was 23.42 % ID/g, the Drug uptake [29] was 0.95 % ID/g and the Drug uptake [30] was 1.91 % ID/g. It also gave a Drug uptake [31] of 2.77 % ID/g and a Drug uptake [32] of 6.05 % ID/g.
